Laboratory results as given in patent US8802597B2, “Herbicidal pyrimidines” (E I du Pont de Nemours and Company, priority 2003, dated 2014).

Key:
Experiment in all cases: Test G pre/postemergence
Type in all cases: in vivo
Conditions in all cases: Preemergence
[1] = test system: itchgrass (Rottboellia cochinchinensis)
How it was run: (§1)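 Test chemicals in non-phytotoxic solvent with surfactant applied preemergence to sown seeds or nutlets and postemergence to plants 2–18 cm tall (1- to 4-leaf stage). Greenhouse-held 12–21 days, then visually rated against untreated controls on a 0 (no effect) to 100 (complete control) scale.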

[2] = test system: quackgrass (Elytrigia repens)
How it was run: as §1

[3] = test system: barnyardgrass (Echinochloa crus-galli)
How it was run: as §1

[4] = test system: common ragweed (Ambrosia elatior)
How it was run: as §1

[5] = test system: annual bluegrass (Poa annua)
How it was run: as §1

[6] = test system: southern sandbur (Cenchrus echinatus)
How it was run: as §1

[7] = test system: broadleaf signalgrass (Brachiaria platyphylla)
How it was run: as §1

[8] = test system: Italian ryegrass (Lolium multiflorum)
How it was run: as §1

[9] = test system: common mallow (Malva sylvestris)
How it was run: as §1

[10] = test system: Surinam grass (Brachiaria decumbens)
How it was run: as §1

[11] = test system: johnsongrass (Sorghum halepense)
How it was run: as §1

[12] = test system: field bindweed (Convolvulus arvensis)
How it was run: as §1

[13] = test system: guineagrass (Panicum maximum)
How it was run: as §1

[14] = test system: downy bromegrass (Bromus tectorum)
How it was run: as §1

COC(=O)c1nc(C2CC2)nc(N)c1Cl [Compound 9, methyl 6-amino-5-chloro-2-cyclopropyl-4-pyrimidinecarboxylate]
70: Plant response rating, Quackgrass ([2]; 62 g ai/ha, scale 0-100) | Plant response rating, Quackgrass ([2]; 250 g ai/ha, scale 0-100) | Plant response rating, Barnyardgrass ([3]; 125 g ai/ha, scale 0-100) | Plant response rating, Surinam Grass ([10]; 125 g ai/ha, scale 0-100) | Plant response rating, Bromegrass, Downy ([14]; 250 g ai/ha, scale 0-100)
10: Plant response rating, Bluegrass ([5]; 62 g ai/ha, scale 0-100) | Plant response rating, Bromegrass, Downy ([14]; 62 g ai/ha, scale 0-100)
85: Plant response rating, Itchgrass ([1]; 500 g ai/ha, scale 0 to 100) | Plant response rating, Barnyardgrass ([3]; 250 g ai/ha, scale 0-100)
100: Plant response rating, Quackgrass ([2]; 500 g ai/ha, scale 0 to 100) | Plant response rating, Ragweed ([4]; 125 g ai/ha, scale 0-100) | Plant response rating, Ragweed ([4]; 250 g ai/ha, scale 0-100) | Plant response rating, Ragweed ([4]; 500 g ai/ha, scale 0 to 100) | Plant response rating, Bluegrass ([5]; 500 g ai/ha, scale 0 to 100) | Plant response rating, Signalgrass ([7]; 500 g ai/ha, scale 0 to 100) | Plant response rating, Mallow ([9]; 125 g ai/ha, scale 0-100) | Plant response rating, Mallow ([9]; 250 g ai/ha, scale 0-100) | Plant response rating, Mallow ([9]; 500 g ai/ha, scale 0 to 100) | Plant response rating, Bindweed, Field ([12]; 125 g ai/ha, scale 0-100) | Plant response rating, Bindweed, Field ([12]; 250 g ai/ha, scale 0-100) | Plant response rating, Bindweed, Field ([12]; 500 g ai/ha, scale 0 to 100) | Plant response rating, Guineagrass ([13]; 125 g ai/ha, scale 0-100) | Plant response rating, Guineagrass ([13]; 250 g ai/ha, scale 0-100) | Plant response rating, Guineagrass ([13]; 500 g ai/ha, scale 0 to 100) | Plant response rating, Bromegrass, Downy ([14]; 500 g ai/ha, scale 0 to 100)
20: Plant response rating, Signalgrass ([7]; 62 g ai/ha, scale 0-100) | Plant response rating, Ryegrass, Italian ([8]; 62 g ai/ha, scale 0-100)
30: Plant response rating, Itchgrass ([1]; 62 g ai/ha, scale 0-100) | Plant response rating, Barnyardgrass ([3]; 62 g ai/ha, scale 0-100) | Plant response rating, Bluegrass ([5]; 125 g ai/ha, scale 0-100)
95: Plant response rating, Barnyardgrass ([3]; 500 g ai/ha, scale 0 to 100) | Plant response rating, Ragweed ([4]; 62 g ai/ha, scale 0-100) | Plant response rating, Bluegrass ([5]; 250 g ai/ha, scale 0-100) | Plant response rating, Sandbur ([6]; 500 g ai/ha, scale 0 to 100) | Plant response rating, Johnsongrass ([11]; 250 g ai/ha, scale 0-100) | Plant response rating, Johnsongrass ([11]; 500 g ai/ha, scale 0 to 100) | Plant response rating, Bindweed, Field ([12]; 62 g ai/ha, scale 0-100)
40: Plant response rating, Surinam Grass ([10]; 62 g ai/ha, scale 0-100) | Plant response rating, Johnsongrass ([11]; 62 g ai/ha, scale 0-100)
75: Plant response rating, Ryegrass, Italian ([8]; 250 g ai/ha, scale 0-100)
60: Plant response rating, Itchgrass ([1]; 125 g ai/ha, scale 0-100)
90: Plant response rating, Sandbur ([6]; 250 g ai/ha, scale 0-100) | Plant response rating, Mallow ([9]; 62 g ai/ha, scale 0-100) | Plant response rating, Surinam Grass ([10]; 500 g ai/ha, scale 0 to 100) | Plant response rating, Guineagrass ([13]; 62 g ai/ha, scale 0-100)
80: Plant response rating, Itchgrass ([1]; 250 g ai/ha, scale 0-100) | Plant response rating, Sandbur ([6]; 125 g ai/ha, scale 0-100) | Plant response rating, Signalgrass ([7]; 125 g ai/ha, scale 0-100) | Plant response rating, Signalgrass ([7]; 250 g ai/ha, scale 0-100) | Plant response rating, Ryegrass, Italian ([8]; 500 g ai/ha, scale 0 to 100) | Plant response rating, Surinam Grass ([10]; 250 g ai/ha, scale 0-100) | Plant response rating, Johnsongrass ([11]; 125 g ai/ha, scale 0-100)
50: Plant response rating, Ryegrass, Italian ([8]; 125 g ai/ha, scale 0-100) | Plant response rating, Bromegrass, Downy ([14]; 125 g ai/ha, scale 0-100)
